Experimental data taken from PubChem BioAssay (NCI).
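Interpolation was linear, between the two tested concentrations surrounding the appropriate level; five concentrations were tested over 48 hours in 96-well plates. TGI: total growth inhibition.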

Key:
Assay in all cases: DTP human tumour cell line panel, 48 h
[1] = system: K-562 leukemia
[2] = system: TK-10 renal
[3] = system: SK-OV-3 ovarian
[4] = system: IGROV1 ovarian
[5] = system: UACC-62 melanoma
[6] = system: UACC-257 melanoma
[7] = system: CCRF-CEM leukemia
[8] = system: T-47D breast
[9] = system: SF-539 CNS
[10] = system: HOP-62 NSCLC
[11] = system: SF-295 CNS
[12] = system: EKVX NSCLC
[13] = system: SK-MEL-28 melanoma
[14] = system: NCI/ADR-RES ovarian
[15] = system: COLO 205 colon
[16] = system: A549 NSCLC
[17] = system: A498 renal
[18] = system: MOLT-4 leukemia
[19] = system: HCT-116 colon
[20] = system: SNB-19 CNS
[21] = system: MDA-MB-435
[22] = system: SF-268 CNS
[23] = system: NCI-H460 lung
[24] = system: SN12C renal
[25] = system: OVCAR-5 ovarian
[26] = system: HCC-2998 colon
[27] = system: HT29 colon
[28] = system: RPMI-8226 leukemia
[29] = system: HCT-15 colon
[30] = system: SK-MEL-5 melanoma
[31] = system: OVCAR-8 ovarian
[32] = system: M14 melanoma
[33] = system: PC-3 prostate
[34] = system: MDA-MB-231 breast
[35] = system: NCI-H522 lung
[36] = system: RXF 393 renal
[37] = system: MDA-N
[38] = system: CAKI-1 renal
[39] = system: SNB-75 CNS
[40] = system: OVCAR-3 ovarian
[41] = system: SR leukemia
[42] = system: MALME-3M melanoma
[43] = system: NCI-H226 lung
[44] = system: DU-145 prostate
[45] = system: BT-549 breast
[46] = system: OVCAR-4 ovarian
[47] = system: KM12 colon
[48] = system: U251 CNS
[49] = system: SW-620 colon
[50] = system: ACHN renal
[51] = system: NCI-H23 lung
[52] = system: UO-31 renal
[53] = system: MCF7 breast
[54] = system: LOX IMVI melanoma
[55] = system: 786-0 renal
[56] = system: HOP-92 NSCLC
[57] = system: HL-60(TB) leukemia
[58] = system: SK-MEL-2 melanoma

SMILES: O=C(CSc1nnc(SCC(=O)NN=C2CCCCC2)s1)NN=C1CCCCC1
- TGI [1]: > 100 µM
- TGI [2]: > 100 µM
- TGI [3]: > 100 µM
- TGI [4]: > 100 µM
- TGI [5]: > 100 µM
- TGI [6]: > 100 µM
- TGI [7]: > 100 µM
- TGI [8]: > 100 µM
- TGI [9]: > 100 µM
- TGI [10]: > 100 µM
- TGI [11]: > 100 µM
- TGI [12]: > 100 µM
- TGI [13]: > 100 µM
- TGI [14]: > 100 µM
- TGI [15]: > 100 µM
- TGI [16]: > 100 µM
- TGI [17]: > 100 µM
- TGI [18]: > 100 µM
- TGI [19]: > 100 µM
- TGI [20]: > 100 µM
- TGI [21]: > 100 µM
- TGI [22]: > 100 µM
- TGI [23]: > 100 µM
- TGI [24]: > 100 µM
- TGI [25]: > 100 µM
- TGI [26]: > 100 µM
- TGI [27]: > 100 µM
- TGI [28]: > 100 µM
- TGI [29]: > 100 µM
- TGI [30]: > 100 µM
- TGI [31]: > 100 µM
- TGI [32]: > 100 µM
- TGI [33]: > 100 µM
- TGI [34]: > 100 µM
- TGI [35]: > 100 µM
- TGI [36]: > 100 µM
- TGI [37]: > 100 µM
- TGI [38]: > 100 µM
- TGI [39]: > 100 µM
- TGI [40]: > 100 µM
- TGI [41]: > 100 µM
- TGI [42]: > 100 µM
- TGI [43]: > 100 µM
- TGI [44]: > 100 µM
- TGI [45]: > 100 µM
- TGI [46]: > 100 µM
- TGI [47]: > 100 µM
- TGI [48]: > 100 µM
- TGI [49]: > 100 µM
- TGI [50]: > 100 µM
- TGI [51]: > 100 µM
- TGI [52]: > 100 µM
- TGI [53]: > 100 µM
- TGI [54]: > 100 µM
- TGI [55]: > 100 µM
- TGI [56]: > 100 µM

SMILES: NC(=S)N/N=C1\CCCCc2ccccc21
- TGI [1]: > 10 µM
- TGI [2]: > 10 µM
- TGI [6]: > 10 µM
- TGI [7]: > 10 µM
- TGI [8]: > 10 µM
- TGI [10]: > 10 µM
- TGI [11]: > 10 µM
- TGI [12]: > 10 µM
- TGI [14]: > 10 µM
- TGI [15]: > 10 µM
- TGI [16]: > 10 µM
- TGI [18]: > 10 µM
- TGI [19]: > 10 µM
- TGI [20]: > 10 µM
- TGI [21]: > 10 µM
- TGI [22]: > 10 µM
- TGI [23]: > 10 µM
- TGI [24]: > 10 µM
- TGI [25]: > 10 µM
- TGI [26]: > 10 µM
- TGI [27]: > 10 µM
- TGI [57]: > 10 µM
- TGI [28]: > 10 µM
- TGI [29]: > 10 µM
- TGI [31]: > 10 µM
- TGI [32]: > 10 µM
- TGI [33]: > 10 µM
- TGI [35]: > 10 µM
- TGI [58]: > 10 µM
- TGI [36]: > 10 µM
- TGI [37]: > 10 µM
- TGI [38]: > 10 µM
- TGI [40]: > 10 µM
- TGI [41]: > 10 µM
- TGI [42]: > 10 µM
- TGI [43]: > 10 µM
- TGI [44]: > 10 µM
- TGI [45]: > 10 µM
- TGI [46]: > 10 µM
- TGI [47]: > 10 µM
- TGI [48]: > 10 µM
- TGI [49]: > 10 µM
- TGI [50]: > 10 µM
- TGI [51]: > 10 µM
- TGI [52]: > 10 µM
- TGI [53]: > 10 µM
- TGI [55]: > 10 µM

SMILES: CC(C)(C)OC(=O)NCCc1ccc(N)cc1
- TGI [1]: > 100 µM
- TGI [2]: > 100 µM
- TGI [4]: > 100 µM
- TGI [5]: > 100 µM
- TGI [6]: > 100 µM
- TGI [7]: > 100 µM
- TGI [8]: > 100 µM
- TGI [10]: > 100 µM
- TGI [11]: > 100 µM
- TGI [12]: > 100 µM
- TGI [13]: > 100 µM
- TGI [14]: > 100 µM
- TGI [15]: > 100 µM
- TGI [16]: > 100 µM
- TGI [18]: > 100 µM
- TGI [19]: > 100 µM
- TGI [20]: > 100 µM
- TGI [21]: > 100 µM
- TGI [22]: > 100 µM
- TGI [23]: > 100 µM
- TGI [26]: > 100 µM
- TGI [27]: > 100 µM
- TGI [57]: > 100 µM
- TGI [28]: > 100 µM
- TGI [29]: > 100 µM
- TGI [30]: > 100 µM
- TGI [31]: > 100 µM
- TGI [32]: > 100 µM
- TGI [33]: > 100 µM
- TGI [34]: > 100 µM
- TGI [35]: > 100 µM
- TGI [37]: > 100 µM
- TGI [40]: > 100 µM
- TGI [41]: > 100 µM
- TGI [42]: > 100 µM
- TGI [44]: > 100 µM
- TGI [46]: > 100 µM
- TGI [48]: > 100 µM
- TGI [49]: > 100 µM
- TGI [50]: > 100 µM
- TGI [52]: > 100 µM
- TGI [53]: > 100 µM
- TGI [54]: > 100 µM
